Assay results taken from the NIST ThermoML archive (doi:10.1021/je400830w).

Key:
[1] = refractive index (Na D-line) (dimensionless); wn = mass fraction of the nth substance listed; details: 100 kPa, Liquid, Standard Abbe refractometry
[2] = wn = mass fraction of the nth substance listed; details: 100 kPa, Liquid; for mass density: Vibrating tube method

O=C([O-])[C@@H]1CCCN1.[Na+] [sodium L-prolinate] + O
Details	mass density, [2] [kg/m3]	refractive index, [1]	viscosity, [2] [mPa·s]
298.15 K, w1 = 0.05	1015.28	1.34005	1.16
298.15 K, w1 = 0.1	1033.9	1.34767	1.456
298.15 K, w1 = 0.2	1071.61	1.36337	2.292
298.15 K, w1 = 0.3	1109.81	1.37937	3.787
298.15 K, w1 = 0.4	1148.69	1.39604	5.56
303.15 K, w1 = 0.05	1013.73	1.33942	1.02
303.15 K, w1 = 0.1	1032.18	1.34706	1.267
303.15 K, w1 = 0.2	1069.51	1.36278	1.967
303.15 K, w1 = 0.3	1106.73	1.37869	3.327
303.15 K, w1 = 0.4	1145.79	1.39498	4.801
308.15 K, w1 = 0.05	1011.98	1.33879	0.9028
308.15 K, w1 = 0.1	1030.28	1.34633	1.114
308.15 K, w1 = 0.2	1067.29	1.36201	1.702
308.15 K, w1 = 0.3	1104.08	1.37768	2.923
308.15 K, w1 = 0.4	1142.83	1.39387	4.21
313.15 K, w1 = 0.05	1010.05	1.33802	0.8062
313.15 K, w1 = 0.1	1028.22	1.3456	0.984
313.15 K, w1 = 0.2	1064.94	1.36125	1.482
313.15 K, w1 = 0.3	1101.95	1.37678	2.509
313.15 K, w1 = 0.4	1139.8	1.39268	3.53
318.15 K, w1 = 0.05	1007.96	1.33724	0.7245
318.15 K, w1 = 0.1	1026.01	1.34502	0.8784
318.15 K, w1 = 0.2	1062.47	1.36042	1.309
318.15 K, w1 = 0.3	1099.31	1.37586	2.193
318.15 K, w1 = 0.4	1136.71	1.39154	2.997
323.15 K, w1 = 0.05	1005.72	1.33642	0.6556
323.15 K, w1 = 0.1	1023.66	1.34433	0.7874
323.15 K, w1 = 0.2	1059.89	1.35984	1.164
323.15 K, w1 = 0.3	1096.7	1.37526	1.94
323.15 K, w1 = 0.4	1133.56	1.39048	2.581
328.15 K, w1 = 0.05	1003.32	1.33569	0.5983
328.15 K, w1 = 0.1	1021.18	1.34373	0.7118
328.15 K, w1 = 0.2	1057.21	1.35931	1.038
328.15 K, w1 = 0.3	1092.78	1.37439	1.69
328.15 K, w1 = 0.4	1130.34	1.38912	2.241
333.15 K, w1 = 0.05	1000.79	1.33497	0.5454
333.15 K, w1 = 0.1	1018.58	1.34306	0.6471
333.15 K, w1 = 0.2	1054.42	1.35882	0.9221
333.15 K, w1 = 0.3	1090.33	1.37364	1.519
333.15 K, w1 = 0.4	1127.09	1.38795	1.96
338.15 K, w1 = 0.05	998.13	1.33424	0.5008
338.15 K, w1 = 0.1	1015.87	1.34256	0.593
338.15 K, w1 = 0.2	1051.56	1.35866	0.8345
338.15 K, w1 = 0.3	1088.2	1.37322	1.361
338.15 K, w1 = 0.4	1123.8	1.38677	1.728
343.15 K, w1 = 0.05	995.35	1.33349	0.4617
343.15 K, w1 = 0.1	1013.04	1.34213	0.5426
343.15 K, w1 = 0.2	1048.61	1.35842	0.7524
343.15 K, w1 = 0.3	1085.34	1.37279	1.203
343.15 K, w1 = 0.4	1120.46	1.38566	1.536
